# Data: the supplement of paper PMC11061612
# Assays:
# Test in all cases: combination Emax (second highest fraction inhibited in the dose matrix, 72 h); higher = more inhibition; extreme values may be limits of the assay
# [1] = tested on: CFPAC-1 (Pancreatic Carcinoma)
# Procedure, shortened: (§1)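 After 24 hours at 37°C and 5% CO2 in 1536-well plates, cells in DMEM/F12 or RPMI plus 10% FBS received two-drug dose matrices for 72 hours. Viability came from CellTiter-Glo 2.0 luminescence and was scaled as inhibition, anchored at 0 by vehicle wells and at 1 by blank wells. Combination Emax is taken as the second-highest inhibition in the matrix, and Bliss excess as the observed combination effect less EA + EB − EA·EB, with EA and EB the single-agent effects.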
# [2] = tested on: COR-L23 (Non-Small Cell Lung Carcinoma)
# Procedure, shortened: as §1
# [3] = tested on: COR-L95 (Small Cell Lung Carcinoma)
# Procedure, shortened: as §1
# [4] = tested on: HPAC (Pancreatic Carcinoma)
# Procedure, shortened: as §1
# [5] = tested on: HT-29 (Colorectal Carcinoma)
# Procedure, shortened: as §1
# [6] = tested on: IHH-4 (Thyroid Gland Carcinoma)
# Procedure, shortened: as §1
# [7] = tested on: KM-H2 (Hodgkin's Lymphoma)
# Procedure, shortened: as §1
# [8] = tested on: MDA-MB-157 (Breast Carcinoma)
# Procedure, shortened: as §1
# [9] = tested on: NCI-H1694 (Small Cell Lung Carcinoma)
# Procedure, shortened: as §1
# [10] = tested on: NCI-H1781 (Lung Adenocarcinoma)
# Procedure, shortened: as §1
# NCI-H2369 (Mesothelioma) = tested on: NCI-H2369 (Mesothelioma)
# Procedure, shortened: as §1
# [11] = tested on: OCI-AML2 (Acute Myeloid Leukemia)
# Procedure, shortened: as §1
# RH-1 (Ewing's Sarcoma) = tested on: RH-1 (Ewing's Sarcoma)
# Procedure, shortened: as §1
# [12] = tested on: SNU-C5 (Colorectal Carcinoma)
# Procedure, shortened: as §1
# [13] = tested on: SW1783 (Low Grade Glioma)
# Procedure, shortened: as §1
# [14] = tested on: SW1990 (Pancreatic Carcinoma)
# Procedure, shortened: as §1
# [15] = tested on: SW756 (Cervical Carcinoma)
# Procedure, shortened: as §1
# [16] = tested on: SW780 (Bladder Carcinoma)
# Procedure, shortened: as §1
# [17] = tested on: TGBC24TKB (Biliary Tract Carcinoma)
# Procedure, shortened: as §1
# [18] = tested on: U-266 (Plasma Cell Myeloma)
# Procedure, shortened: as §1
SMILES,combination Emax [7],combination Emax [1],combination Emax [2],combination Emax [3],combination Emax [4],combination Emax [5],combination Emax [6],combination Emax [8],combination Emax [9],combination Emax [10],combination Emax (NCI-H2369 (Mesothelioma)),combination Emax [11],combination Emax (RH-1 (Ewing's Sarcoma)),combination Emax [12],combination Emax [13],combination Emax [14],combination Emax [15],combination Emax [16],combination Emax [17],combination Emax [18]
"CN(CCO)CC[C@H](CSc1ccccc1)Nc1ccc(S(=O)(=O)NC(=O)c2ccc(N3CCC([C@@H](O)c4ccccc4-c4ccc(Cl)cc4)CC3)cc2)cc1S(=O)(=O)C(F)(F)F [AZD4320] + CN(C)CCCOc1ccc(-c2ccc3ncc4c(c3c2)n(C2CCOCC2)c(=O)n4C)cn1 [AZD0156] (first compound max 1 µM, 7x7, partner max 1 µM)",0.155,0.115,0.0875,1,0.371,0.169,0.224,0.0946,0.718,0.183,0.0933,1,0.359,0.225,0.52,0.079,0.133,0.521,0.598,0.506
"CC1(C)CCC(CN2CCN(c3ccc(C(=O)NS(=O)(=O)c4ccc(NCC5CCOCC5)c([N+](=O)[O-])c4)c(Oc4cnc5[nH]ccc5c4)c3)CC2)=C(c2ccc(Cl)cc2)C1 [Venetoclax] + C1CN(CCC1(C(=O)N[C@@H](CCO)C2=CC=C(C=C2)Cl)N)C3=NC=NC4=C3C=CN4 [Capivasertib] (first compound max 1 µM, 7x7, partner max 3 µM)",0.153,0.305,0.245,0.719,0.148,0.254,0.248,0.535,0.179,0.5,0.134,1,0.213,0.318,0.342,0.576,0.195,0.163,0.253,0.555
"CC(=O)c1c(C)c2cnc(Nc3ccc(N4CCNCC4)cn3)nc2n(C2CCCC2)c1=O [Palbociclib] + Cc1c2c(nn1C)CSCc1cc(n(C)n1)CSc1cc(c3ccccc3c1)OCCCc1c(C(=O)O)n(C)c3c-2c(Cl)ccc13 [AZD5991] (first compound max 10 µM, 7x7, partner max 1 µM)",0.567,0.375,0.203,0.196,0.329,0.449,0.411,0.669,0.667,0.403,0.199,0.955,0.853,0.35,0.159,0.204,0.29,0.223,0.585,0.872
"Cc1c2c(nn1C)CSCc1cc(n(C)n1)CSc1cc(c3ccccc3c1)OCCCc1c(C(=O)O)n(C)c3c-2c(Cl)ccc13 [AZD5991] + CCN(CCO)CCCOc1ccc2c(Nc3cc(CC(=O)Nc4cccc(F)c4)[nH]n3)ncnc2c1 [AZD2811] (first compound max 1 µM, 7x7, partner max 1 µM)",0.271,0.256,0.201,0.449,0.623,0.383,0.404,0.846,0.985,0.875,0.176,1,0.956,0.288,0.246,0.298,0.204,0.213,0.543,0.945
"Cc1cc2ncnn2cc1Nc1ncc2c(n1)n(C1CCOCC1)c(=O)n2C [AZD7648] + C[C@@H]1COCCN1C2=NC(=NC(=C2)C3(CC3)[S@](=N)(=O)C)C4=C5C=CNC5=NC=C4 [AZD6738] (first compound max 10 µM, 7x7, partner max 10 µM)",0.774,0.356,0.577,0.621,0.672,0.808,0.756,0.881,0.659,0.443,0.25,0.986,0.894,0.751,0.437,0.471,0.401,0.303,0.786,0.508
"CCN(CCO)CCCOc1ccc2c(Nc3cc(CC(=O)Nc4cccc(F)c4)[nH]n3)ncnc2c1 [AZD2811] + O=C(c1cc(Cc2n[nH]c(=O)c3ccccc23)ccc1F)N1CCN(C(=O)C2CC2)CC1 [Olaparib] (first compound max 1 µM, 7x7, partner max 10 µM)",0.384,0.215,0.0799,0.436,0.21,0.182,0.459,0.251,0.276,0.67,0.216,0.873,0.947,0.161,0.201,0.168,0.0979,0.242,0.564,0.279

# Now from value to compound, other results behind:
combination Emax [7],SMILES,combination Emax [1],combination Emax [2],combination Emax [3],combination Emax [4],combination Emax [5],combination Emax [6],combination Emax [8],combination Emax [9],combination Emax [10],combination Emax (NCI-H2369 (Mesothelioma)),combination Emax [11],combination Emax (RH-1 (Ewing's Sarcoma)),combination Emax [12],combination Emax [13],combination Emax [14],combination Emax [15],combination Emax [16],combination Emax [17],combination Emax [18]
0.924,"COc1cccc(OCCCN)c1-c1cc(Nc2cnc(C#N)cn2)n[nH]1 [Prexasertib] + Cc1cc2ncnn2cc1Nc1ncc2c(n1)n(C1CCOCC1)c(=O)n2C [AZD7648] (first compound max 1 µM, 7x7, partner max 10 µM)",0.692,0.711,0.644,0.816,0.861,0.947,0.961,0.808,0.468,0.253,1,1,0.886,0.473,0.703,0.489,0.26,0.827,0.713
0.933,"COc1cccc(OCCCN)c1-c1cc(Nc2cnc(C#N)cn2)n[nH]1 [Prexasertib] + CN(C)CCCOc1ccc(-c2ccc3ncc4c(c3c2)n(C2CCOCC2)c(=O)n4C)cn1 [AZD0156] (first compound max 1 µM, 7x7, partner max 1 µM)",0.618,0.683,0.644,0.795,0.858,0.901,0.935,0.794,0.45,0.29,1,1,0.889,0.445,0.705,0.379,0.136,0.863,0.728
0.92,"COc1cccc(OCCCN)c1-c1cc(Nc2cnc(C#N)cn2)n[nH]1 [Prexasertib] + C[C@@H]1COCCN1C2=NC(=NC(=C2)C3(CC3)[S@](=N)(=O)C)C4=C5C=CNC5=NC=C4 [AZD6738] (first compound max 1 µM, 7x7, partner max 10 µM)",0.643,0.685,0.675,0.769,0.857,0.862,0.949,0.823,0.486,0.192,1,1,0.894,0.496,0.695,0.426,0.201,0.918,0.65
0.292,"NC1(C(=O)N[C@@H](CCO)c2ccc(Cl)cc2)CCN(c2ncnc3[nH]ccc23)CC1 [Capivasertib] + Cn1cnc2c(F)c(Nc3ccc(Br)cc3Cl)c(C(=O)NOCCO)cc21 [Selumetinib] (first compound max 10 µM, 7x7, partner max 10 µM)",0.491,0.609,0.22,0.783,0.783,0.607,0.292,0.204,0.695,0.231,1,0.317,0.656,0.415,0.368,0.448,0.421,0.556,0.694
0.47,"CC(=O)c1c(C)c2cnc(Nc3ccc(N4CCNCC4)cn3)nc2n(C2CCCC2)c1=O [Palbociclib] + Cn1cnc2c(F)c(Nc3ccc(Br)cc3Cl)c(C(=O)NOCCO)cc21 [Selumetinib] (first compound max 10 µM, 7x7, partner max 10 µM)",0.411,0.327,0.283,0.735,0.769,0.59,0.147,0.306,0.235,0.144,1,0.228,0.463,0.0922,0.334,0.343,0.356,0.429,0.648
0.938,"CCN(CCO)CCCOc1ccc2c(Nc3cc(CC(=O)Nc4cccc(F)c4)[nH]n3)ncnc2c1 [AZD2811] + C=CCn1c(=O)c2cnc(Nc3ccc(N4CCN(C)CC4)cc3)nc2n1-c1cccc(C(C)(C)O)n1 [AZD1775] (first compound max 1 µM, partner max 1 µM)",0.372,0.349,0.655,0.643,0.82,0.667,0.729,0.374,0.819,0.151,0.991,1,0.59,0.193,0.458,0.407,0.186,0.651,0.605
0.953,"CN(C)CCCOc1ccc(-c2ccc3ncc4c(c3c2)n(C2CCOCC2)c(=O)n4C)cn1 [AZD0156] + C=CCn1c(=O)c2cnc(Nc3ccc(N4CCN(C)CC4)cc3)nc2n1-c1cccc(C(C)(C)O)n1 [AZD1775] (first compound max 1 µM, partner max 1 µM)",0.473,0.298,0.623,0.67,0.83,0.821,0.673,0.367,0.43,0.207,0.97,1,0.583,0.179,0.483,0.379,0.124,0.677,0.737
